One may read the MIC as the lowest concentration that inhibits growth of the organism. A low value points to greater potency.

SMILES strings stand for the structures. Values after ≈ are worked out from the molar mass of the structure shown. Where a SMILES comes first, the peptide text is derived from it. Bridges are numbered along the chain shown (N, C = ends). Roman numbers before positions name the chains, in order. [ ]: non-standard residue; d: D form. Thr(ol) = C[C@@H](O)[C@H](N)CO; Tle = CC(C)(C)[C@H](N)C(=O)O; NMeV = CN[C@H](C(=O)O)C(C)C; Hiv = CC(C)[C@H](O)C(=O)O; dDab = NCC[C@@H](N)C(=O)O; hSer = N[C@@H](CCO)C(=O)O; Orn = NCCC[C@H](N)C(=O)O; Dab = NCC[C@H](N)C(=O)O; Dap = NC[C@H](N)C(=O)O

What all share (type): cell-based
Series [1] concerns human red blood cells (hRBC). The series is described as follows: Hemolysis. To be noted: red cells of human, 1 h, 200. As for the experimental part:
The peptides were tested for their hemolytic activity against human red blood cells (hRBC). Fresh hRBC were washed four times with phosphate buffered saline (PBS) and centrifuged for 10 min at 3000×g. Compounds (200 μg/mL) were incubated with 20% hRBC (v/v) for 1 h at 37° C. and shaking at 300 rpm. A value of 0% and 100% cell lysis, respectively, was determined by incubation of hRBC in the presence of PBS containing 10% water and 2% Triton X-100 in H2O, respectively. The samples were centrifuged, the supernatants were ˜7.5-fold diluted in PBS buffer and the optical densities (OD) were measured at 540 nm and blank corrected. The 100% lysis value (OD540Triton X-100) gave an OD540 of approximately 0.5-1.0.
Percent hemolysis was calculated as follows: (OD540peptide/OD540Triton X-100)×100%.

In series [2] the test system is Acinetobacter baumannii 872842. The note with it: 872842. As for the experimental part: (§1) The in vitro antimicrobial activities of the peptides were determined in 96-well plates (Greiner, polystyrene) by the standard CLSI broth microdilution method (Clinical and Laboratory Standards Institute 2014. Performance standards for antimicrobial susceptibility testing, 24th informational supplement. Approved standard CLSI M100-S24; Clinical and Laboratory Standards Institute, Wayne, Pa.). The following microorganisms were used to determine antibiotic activity of the peptides: Escherichia coli ATCC 25922, Klebsiella pneumoniae SSI #3010^a), Acinetobacter baumannii DSM 30008, Pseudomonas aeruginosa ATCC 27853 and the clinical isolates Escherichia coli 926415^b), Klebsiella pneumoniae 968733^b), Acinetobacter baumannii 872842^b), Enterobacter cloacae 848840^b) and Escherichia coli MCR-1 Af45^c). Before preparation of inocula, Escherichia coli MCR-1 Af45 was subcultured on Mueller-Hinton II (MH-cation adjusted) agar containing 2 μg/mL colistin. ^a) Obtained from Statens Serum Institut (SSI), Copenhagen, Denmark^b) Obtained from International Health Management Associates, Inc. (IHMA Europe Sàrl), Epalinges, Switzerland^c) Obtained from Prof. Patrice Nordmann, University of Fribourg, Fribourg, Switzerland
(§2) Inocula of the microorganisms were diluted into Mueller-Hinton II (MH-cation adjusted) broth and compared with a 0.5 McFarland standard to give appr. 10^6 colony forming units (CFU)/mL. Aliquots (90 μL) of inoculum were added to 10 μL of MH-II broth+P-80 (Polysorbate 80, 0.002% final concentration, v/v) containing the peptide in serial two-fold dilutions. Antimicrobial activities of the peptides were expressed as the minimal inhibitory concentration (MIC) in μg/mL at which no visible growth was observed after 18-20 hours of incubation at 35° C.

In series [3] the test system is Escherichia coli ATCC 25922. The note with it: ATCC 25922. The procedure:
as §1, §2

The test system of series [4] is Enterobacter cloacae 848840. The note with it: 848840. As for the experimental part:
as §1, §2

For series [5], the system named is Klebsiella pneumoniae 968733. The note with it: 968733. The procedure: as §1, §2
In series [6] the test system is Acinetobacter baumannii DSM 30008. To be noted: DSM 30008. The procedure: as §1, §2
The subject of series [7] is Pseudomonas aeruginosa ATCC 27853. To be noted: ATCC 27853. As for the experimental part: as §1, §2
Series [8] has as its system Escherichia coli 926415. To be noted: 926415. As for the experimental part:
as §1, §2

For series [9], the system named is Klebsiella pneumoniae SSI #3010. The note with it: SSI #3010. The procedure: as §1, §2

On to `CN[C@H](C(=O)N[C@H](C(=O)N[C@@H](Cc1ccc(O)cc1)C(=O)N[C@H]1CSSC[C@@H](C(=O)N[C@H](C(=O)N[C@@H](CO)C(N)=O)C(C)C)NC(=O)[C@H](Cc2c[nH]c3ccccc23)NC(=O)[C@H](CCO)NC(=O)[C@@H](CCN)NC(=O)[C@H](CCC(=O)N[C@@H](CCN)C(=O)N[C@H](C(=O)N[C@@H](CCN)C(=O)N[C@H]2CCNC(=O)[C@H]([C@@H](C)O)NC(=O)[C@H](CCN)NC(=O)[C@H](CCN)NC(=O)[C@H](CC(C)C)NC(=O)[C@@H](CC(C)C)NC(=O)[C@H](CCN)NC2=O)[C@@H](C)O)NC1=O)[C@@H](C)O)C(C)C` [Ex. 12] (I: H-[NMeV]TYCE[dDab][hSer]WCVS-NH2 / II: [Dab]T[Dab][Dab][Dab][dL]L[Dab][Dab]T; disulfide I:4-I:9; amide I:5-II:N; lactam II:4-II:C), for which the “Hemolysis at 200 μg/mL” value in series [1] is reported as 2%. In addition, the MIC in series [2] is 1 µg/mL (≈ 0.432 µM); in series [3], 0.0625 µg/mL (≈ 0.027 µM); in series [4], 0.5 µg/mL (≈ 0.216 µM); in series [5] it was 4 µg/mL (≈ 1.73 µM); in [6] it was 0.125 µg/mL (≈ 0.054 µM); in series [7], 0.125 µg/mL (≈ 0.054 µM). Besides, the MIC in [8] is 1 µg/mL (≈ 0.432 µM); in series [9] it was 0.25 µg/mL (≈ 0.108 µM).

For `CC(=O)N[C@H](C(=O)N[C@H]1CCCNC(=O)[C@@H]([C@H](C)O)NC(=O)[C@H](C(C)(C)C)NC(=O)[C@H](CO)NC(=O)[C@H](Cc2c[nH]c3ccccc23)NC(=O)[C@H](CCO)NC(=O)[C@@H](CCN)NC(=O)[C@H](CCC(=O)N[C@@H](CCN)C(=O)N[C@H](C(=O)N[C@@H](CCN)C(=O)N[C@H]2CCNC(=O)[C@H]([C@@H](C)O)NC(=O)[C@H](CCN)NC(=O)[C@H](CCN)NC(=O)[C@H](CC(C)C)NC(=O)[C@@H](CC(C)C)NC(=O)[C@H](CCN)NC2=O)[C@@H](C)O)NC(=O)[C@H](CCN)NC(=O)[C@H](Cc2ccc(O)cc2)NC1=O)C(C)C` [Ex. 15] (I: Ac-V[Orn]Y[Dab]E[dDab][hSer]WS[Tle][dT] / II: [Dab]T[Dab][Dab][Dab][dL]L[Dab][Dab]T; lactam I:2-I:C, II:4-II:C; amide I:5-II:N), the “Hemolysis at 200 μg/mL” value in series [1] is below 1%. The MIC was 0.25 µg/mL (≈ 0.106 µM) in [2]; 0.0625 µg/mL (≈ 0.0266 µM) in series [3]; 0.125 µg/mL (≈ 0.0532 µM) in series [4]; 0.25 µg/mL (≈ 0.106 µM) in series [5]; 0.125 µg/mL (≈ 0.0532 µM) in series [6]; 0.25 µg/mL (≈ 0.106 µM) in [7]. In addition, the values for the MIC in [8] and in series [9] were 0.25 µg/mL (≈ 0.106 µM) and 0.125 µg/mL (≈ 0.0532 µM), respectively.

Take `CC(C)C[C@@H]1NC(=O)[C@H](CCN)NC(=O)[C@H](CCN)NC(=O)[C@H](CC(C)C)NC(=O)[C@@H](CC(C)C)NC(=O)[C@H](CCN)NC(=O)[C@@H](NC(=O)[C@@H](CCN)NC(=O)CC[C@@H]2NC(=O)[C@H](CCCN)NC(=O)[C@H](CCN)NC(=O)[C@H](Cc3ccc(O)cc3)NC(=O)[C@@H](NC(=O)[C@@H](O)C(C)C)CSSC[C@@H](C(=O)N[C@H](C(N)=O)[C@@H](C)O)NC(=O)[C@H](C(C)(C)C)NC(=O)[C@H](CO)NC(=O)[C@H](Cc3c[nH]c4ccccc34)NC(=O)[C@H]([C@@H](C)O)NC2=O)CCNC1=O` [Ex. 164] (I: H-[Hiv]CY[Dab][Orn]ETWS[Tle]CT-NH2 / II: [dDab][Dab][Dab][dL]L[Dab][Dab]L; disulfide I:2-I:11; amide I:6-II:N; lactam II:2-II:C): in series [1], the “Hemolysis at 200 μg/mL” value is given as below 1%. Besides, the MIC in series [2] turned out to be 2 µg/mL (≈ 0.893 µM); in series [3], 0.5 µg/mL (≈ 0.223 µM); in series [5], 1 µg/mL (≈ 0.447 µM); in series [6], 0.5 µg/mL (≈ 0.223 µM); in [7], 1 µg/mL (≈ 0.447 µM); in [8], 0.25 µg/mL (≈ 0.112 µM). Besides, in [9], the MIC was determined as 0.5 µg/mL (≈ 0.223 µM).

On to `CC(C)C[C@@H]1NC(=O)[C@@H](CC(C)C)NC(=O)[C@H](CCN)NC(=O)[C@@H](NC(=O)[C@H](CN)NC(=O)[C@@H](NC(=O)[C@H](CCN)NC(=O)CC[C@H]2NC(=O)[C@@H](CCN)NC(=O)[C@H](CCCN)NC(=O)[C@H](CCN)NC(=O)[C@H](Cc3ccc(O)cc3)NC(=O)[C@@H](NC(=O)[C@@H](O)C(C)C)CSSC[C@@H](C(=O)N[C@H](C(N)=O)[C@@H](C)O)NC(=O)[C@H](C(C)(C)C)NC(=O)[C@H](CO)NC(=O)[C@H](Cc3c[nH]c4ccccc34)NC2=O)[C@@H](C)O)CCNC(=O)[C@H]([C@@H](C)O)NC(=O)[C@H](CCN)NC(=O)[C@H](CCN)NC1=O` [Ex. 169] (I: H-[Hiv]CY[Dab][Orn][dDab][dE]WS[Tle]CT-NH2 / II: [Dab]T[Dap][Dab][Dab][dL]L[Dab][Dab]T; disulfide I:2-I:11; amide I:7-II:N; lactam II:4-II:C), for which the “Hemolysis at 200 μg/mL” value in series [1] is recorded as below 1%. For the same compound, the MIC was 1 µg/mL (≈ 0.414 µM) in series [2]; 0.25 µg/mL (≈ 0.104 µM) in series [3]; 4 µg/mL (≈ 1.66 µM) in [5]; 0.25 µg/mL (≈ 0.104 µM) in series [6]; 0.25 µg/mL (≈ 0.104 µM) in series [7]; 0.5 µg/mL (≈ 0.207 µM) in [8]. This compound gave an MIC in [9] of 0.5 µg/mL (≈ 0.207 µM).

Take `CC(C)C[C@@H]1NC(=O)[C@@H](CC(C)C)NC(=O)[C@H](CCN)NC(=O)[C@@H](NC(=O)[C@H](CN)NC(=O)[C@@H](NC(=O)[C@H](CCN)NC(=O)CC[C@H]2NC(=O)CNC(=O)[C@H](CCCN)NC(=O)[C@H](CCN)NC(=O)[C@H](Cc3ccc(O)cc3)NC(=O)[C@@H](NC(=O)[C@@H](O)C(C)C)CSSC[C@@H](C(=O)N[C@H](C(N)=O)[C@@H](C)O)NC(=O)[C@H](C(C)(C)C)NC(=O)[C@H](CO)NC(=O)[C@H](Cc3c[nH]c4ccccc34)NC2=O)[C@@H](C)O)CCNC(=O)[C@H]([C@@H](C)O)NC(=O)[C@H](CCN)NC(=O)[C@H](CCN)NC1=O` [Ex. 170] (I: H-[Hiv]CY[Dab][Orn]G[dE]WS[Tle]CT-NH2 / II: [Dab]T[Dap][Dab][Dab][dL]L[Dab][Dab]T; disulfide I:2-I:11; amide I:7-II:N; lactam II:4-II:C): the “Hemolysis at 200 μg/mL” value in series [1] is given as below 1%. Also, the MIC in [2] came to 2 µg/mL (≈ 0.844 µM); in [3], 0.125 µg/mL (≈ 0.0527 µM); in series [5] it was 2 µg/mL (≈ 0.844 µM); in series [6] it was 0.25 µg/mL (≈ 0.105 µM); in series [7], 0.5 µg/mL (≈ 0.211 µM); in series [8] it was 0.5 µg/mL (≈ 0.211 µM). The same compound returned an MIC in series [9] of 0.5 µg/mL (≈ 0.211 µM).

On to `CC(C)C[C@@H]1NC(=O)[C@@H](CC(C)C)NC(=O)[C@H](CCN)NC(=O)[C@@H](NC(=O)[C@H](CN)NC(=O)[C@@H](NC(=O)[C@H](CCN)NC(=O)CC[C@@H]2NC(=O)[C@H](CCCN)NC(=O)[C@@H](NC(=O)[C@H](Cc3ccc(O)cc3)NC(=O)[C@@H](NC(=O)[C@@H](O)C(C)C)[C@@H](C)O)CSSC[C@@H](C(=O)N[C@H](C(=O)N[C@@H](C)C(=O)N[C@H](CO)[C@@H](C)O)C(C)(C)C)NC(=O)[C@H](Cc3c[nH]c4ccccc34)NC(=O)[C@H]([C@@H](C)O)NC2=O)[C@@H](C)O)CCNC(=O)[C@H]([C@@H](C)O)NC(=O)[C@H](CCN)NC(=O)[C@H](CCN)NC1=O` [Ex. 209] (I: H-[Hiv]TYC[Orn]ETWC[Tle]A[Thr(ol)] / II: [Dab]T[Dap][Dab][Dab][dL]L[Dab][Dab]T; disulfide I:4-I:9; amide I:6-II:N; lactam II:4-II:C), for which, in series [1], the “Hemolysis at 200 μg/mL” value was below 1%. The MIC was found to be 2 µg/mL (≈ 0.838 µM) in series [2]; 0.125 µg/mL (≈ 0.0524 µM) in [3]; 4 µg/mL (≈ 1.68 µM) in series [5]; 0.25 µg/mL (≈ 0.105 µM) in series [6]; 0.5 µg/mL (≈ 0.21 µM) in [7]; 1 µg/mL (≈ 0.419 µM) in [8]. Further, the MIC in series [9] worked out at 0.25 µg/mL (≈ 0.105 µM).
